Values quoted from earlier work in patent publication EP2179733A1, “PHARMACEUTICAL COMPOSITION COMBINING AN ANTIMICROBIAL AGENT AND A SELECTIVE ENKEPHALINASE ENZYME INHIBITOR, WHICH CAN BE USED TO CONTROL AND TREAT ACUTE BACTERIAL DIARRHOEA” (World Trade Import-Export, WTIE A.G., priority 2007, dated 2009).

Tests used:
plasmatic enkephalinase = target: T1, plasmatic enkephalinase (Homo sapiens, UniProt P08473)
T1 construct: from tissue; host or cells: plasma after oral administration of Racecadotril
T1 sequence (P08473 whole entry): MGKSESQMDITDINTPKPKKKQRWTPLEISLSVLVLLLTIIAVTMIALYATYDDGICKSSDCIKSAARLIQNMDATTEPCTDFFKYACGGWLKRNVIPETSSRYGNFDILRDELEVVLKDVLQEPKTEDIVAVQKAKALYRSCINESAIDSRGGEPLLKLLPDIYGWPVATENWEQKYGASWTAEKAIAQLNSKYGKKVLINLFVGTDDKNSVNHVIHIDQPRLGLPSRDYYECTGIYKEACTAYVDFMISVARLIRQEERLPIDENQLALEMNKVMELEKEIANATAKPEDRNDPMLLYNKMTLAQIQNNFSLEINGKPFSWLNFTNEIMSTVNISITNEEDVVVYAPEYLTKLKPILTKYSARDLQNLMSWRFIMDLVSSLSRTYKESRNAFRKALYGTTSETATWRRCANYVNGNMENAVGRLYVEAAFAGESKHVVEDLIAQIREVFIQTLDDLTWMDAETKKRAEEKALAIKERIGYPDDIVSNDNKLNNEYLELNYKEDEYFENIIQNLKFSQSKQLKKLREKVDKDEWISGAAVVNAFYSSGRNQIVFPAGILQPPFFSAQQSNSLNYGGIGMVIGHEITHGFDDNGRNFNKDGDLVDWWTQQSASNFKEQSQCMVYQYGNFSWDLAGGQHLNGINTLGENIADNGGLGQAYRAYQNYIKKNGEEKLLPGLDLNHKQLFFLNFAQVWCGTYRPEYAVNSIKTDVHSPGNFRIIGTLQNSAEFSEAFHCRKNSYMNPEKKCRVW

SMILES: CC(=O)SCC(Cc1ccccc1)C(=O)NCC(=O)OCc1ccccc1 (stereo not drawn) [Racecadotril]
- duration of inhibiting effect over plasmatic enkephalinase (plasmatic enkephalinase; 1.5 mg/kg oral doses): about 8 hours
- maximum enzymatic inhibition level (plasmatic enkephalinase; 1.5 mg/kg oral doses): about 90%
- start of plasmatic enkephalinase inhibiting effect after administration (plasmatic enkephalinase; oral administration): 30 min
- time to maximum activity (plasmatic enkephalinase; oral administration): 2 h
- delay of maximum activity when administered with food (plasmatic enkephalinase; with food): about one and half
- administered dose distributed in tissues (in vivo): 1%
- mean life (in vivo): about 3 hours
- time to maximum concentration from administration (oral administration): 60 min
- bioavailability when administered with food (with food): not modified
